Like-named read-outs stand apart in the source and are kept apart here. Marks after values point to notes of the source that are not given here.
Experiments:
[1] = Metabolic stability in human microsomes; conditions: for % remaining at 45 min: Human microsome
[2] = Metabolic stability in dog microsomes; conditions: for % remaining at 45 min: Dog microsome; for metabolic stability compared with Compound 9 (Langlet et al.): dog and/or human microsomes, in words
[3] = target: T1, human FOXO1 (Homo sapiens, UniProt Q12778); assay: FOXO1 transcriptional reporter assay (insulin response element firefly luciferase / Renilla) in HEK293 cells; type: cell-based; conditions: HEK293 cells transfected with human FOXO1, 24 hours, class combines IC50 and maximal inhibition; read-out: IC50 (active range)
T1 construct: expressed in transfected cells; host or cells: HEK293
T1 sequence (Q12778 whole entry): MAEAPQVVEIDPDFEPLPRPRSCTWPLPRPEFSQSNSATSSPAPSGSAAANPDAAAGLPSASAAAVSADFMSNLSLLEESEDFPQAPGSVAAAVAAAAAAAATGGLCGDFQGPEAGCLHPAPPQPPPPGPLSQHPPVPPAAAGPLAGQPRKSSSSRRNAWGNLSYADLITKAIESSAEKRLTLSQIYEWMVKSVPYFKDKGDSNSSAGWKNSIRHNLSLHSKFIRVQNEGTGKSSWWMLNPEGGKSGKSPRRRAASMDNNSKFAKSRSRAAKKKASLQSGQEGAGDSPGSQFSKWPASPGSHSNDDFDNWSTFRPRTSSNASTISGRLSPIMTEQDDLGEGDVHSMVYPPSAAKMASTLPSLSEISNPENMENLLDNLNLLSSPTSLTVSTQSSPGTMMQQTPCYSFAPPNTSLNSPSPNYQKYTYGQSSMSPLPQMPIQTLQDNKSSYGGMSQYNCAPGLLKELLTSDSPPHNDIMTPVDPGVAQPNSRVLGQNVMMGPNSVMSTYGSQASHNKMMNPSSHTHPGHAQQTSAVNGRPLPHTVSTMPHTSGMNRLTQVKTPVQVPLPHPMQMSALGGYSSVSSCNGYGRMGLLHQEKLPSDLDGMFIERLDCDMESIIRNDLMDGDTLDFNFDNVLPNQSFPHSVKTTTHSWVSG
Protocol: The activities of FOXO1 inhibitors were determined by a transcriptional reporter assay. HEK293 cells were plated onto 96-well plates with moat at 20000 cells per well in Eagle's Minimum Essential Medium (EMEM) containing 1% fetal bovine serum, and incubated overnight at 37° C. and 5% CO2. […] Compounds were then added at varying final concentrations ranging from 50 μM to 1 nM, with final DMSO concentration of 0.5% in each well. Duplicate wells were included for each treatment condition. Cells were incubated for 24 hours at 37° C. and 5% CO2. Luciferase activities in each well were measured using Dual-Glo Luciferase Assay System (Promega) according to manufacturer's protocol and a plate reader suitable for luminescence detection. Firefly luciferase activity was divided by Renilla luciferase activity to calculate a ratio for each well. The ratio in wells containing cells transfected with all 3 plasmids listed above and receiving only DMSO without compound addition was set to 100%. The ratio in wells containing cells transfected with plasmids (1), (3), and 5 ng of pcDNA3.1 containing the open reading frame of red fluorescent protein (instead of human FOXO1) and treated with DMSO only was set to 0%. The ratio in each well receiving compound treatment was normalized and expressed as a percentage. Data were fit by 4-parameter logistic regression to determine IC50 and maximal inhibition values. Each compound was tested in a minimum of 2 independent experiments.

[4] = Metabolic stability in mouse microsomes; type: in vitro ADME; conditions: for microsomal CLint at 0.75 h, 0.3 μM: CD-1, liver microsomes, pH 7.4, in vitro intrinsic clearance; for microsomal CLint at 0.75 h, 0.3 μM / % remaining at 45 min: Mouse microsome, 0.3 μM; for metabolic stability compared with Compound 10 (Langlet et al.): mouse microsomes, and/or human hepatocytes, in words
[5] = Metabolic stability in human hepatocytes; conditions: for % remaining at 90 min: Human hepatocyte, 0.3 μM; for hepatocyte CLint at 1.5 h, 0.3 µM: human, hepatocytes (cryopreserved)
Protocol: An in vitro system comprising human Hepatocytes was employed. The incubation conditions and sampling time point of test article and positive control were as follows. Test articles (0.3 μM) and positive controls (verapamil) were incubated in a 0.2mL volume in 96-well format. Stock solutions were received at 10 mM in DMSO and the Final DMSO % in incubation was 0.01%. […] Incubation plates were shaken on an automated orbital shaker at 600 rpm. Incubation time points were: 0, 15, 30, 60, 90 minutes.
Following this pre-incubation period, the test compound (DMSO stock solution) was added to the incubation plate, which was mixed to initiate the incubation. The reaction plate was sampled (20 μL aliquot) at the pre-determined incubation time points, the sample quenched with 80 μL of Stop solution with internal standard (Acetonitrile with 0.1% (v/v) formic acid containing 100 nM labetalol, 20 nM imipramine, and 200 nM diclofenac) and the samples were mixed well. After quenching the reaction, the reaction mixture was centrifuged and the samples were submitted for LC-MS/MS analysis. Depletion rate (kdep, min^−1) and % compound remaining was calculated by peak area ratio (PAR) with internal standard at each time point relative to time 0 min. The estimation of Clint(Unscaled) (in μl/min/10^6 cells) was performed with the following equation:

[6] = target: T2, acetylcholinesterase (AChE) (Homo sapiens, UniProt P22303); assay: biochemical; type: biochemical
T2 construct: host or cells: CHO cells
T2 sequence (P22303 32-614): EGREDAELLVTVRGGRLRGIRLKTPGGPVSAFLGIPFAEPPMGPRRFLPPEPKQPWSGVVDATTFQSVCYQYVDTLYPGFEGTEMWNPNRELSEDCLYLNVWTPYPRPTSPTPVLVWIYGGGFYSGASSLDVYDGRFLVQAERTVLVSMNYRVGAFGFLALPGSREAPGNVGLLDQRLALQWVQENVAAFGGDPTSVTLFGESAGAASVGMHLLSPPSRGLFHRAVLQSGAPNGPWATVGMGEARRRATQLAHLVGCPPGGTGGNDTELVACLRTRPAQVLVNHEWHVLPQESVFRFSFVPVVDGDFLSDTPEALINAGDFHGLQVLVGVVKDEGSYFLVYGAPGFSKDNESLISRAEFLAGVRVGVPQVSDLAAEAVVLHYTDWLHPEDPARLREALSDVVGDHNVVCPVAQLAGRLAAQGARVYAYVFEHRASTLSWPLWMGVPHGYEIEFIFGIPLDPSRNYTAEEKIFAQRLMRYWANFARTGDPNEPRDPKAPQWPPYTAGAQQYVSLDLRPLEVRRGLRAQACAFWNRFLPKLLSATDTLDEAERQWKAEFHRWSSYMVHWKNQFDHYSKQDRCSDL
Protocol: The protein source was Human (recombinant) Expressed in CHO cells. The enzymatic activity was studied. The method employed was the detection of conversion of acetylthiocholine to thiocholine using DTNB. The substrate employed was Acetylthiocholine.
Enzyme and test compound were pre-incubated for 15 minutes at room temp before substrate addition. Acetylthiocholine and DTNB (5,5′-dithiobis-(2-nitrobenzoic acid)) were added and incubated at room temperature for 30 minutes. Signal was detected by measuring absorbance at 405 nm.
Percentage inhibition was calculated using the following formula: […]

[7] = selectivity studies, Table 4, read-out: AChE IC50
[8] = Human recombinant AChE expressed in CHO cells, read-out: AChE Inhibitor IC50

With `COc1ccc(C(=O)Nc2cc(-c3nc4ccccc4[nH]3)n[nH]2)cc1Cl` [Compound 1, reference compound] the “% remaining at 45 min” value [1] was 3.2%, the microsomal CLint at 0.75 h, 0.3 μM ([1]; human, microsomes, pH 7.4) was 306 µL/min/mg and the “% remaining at 45 min” value [2] was 12%. The microsomal CLint at 0.75 h, 0.3 μM ([2]; dog, microsomes, pH 7.4) was 185 µL/min/mg.
With `CN1CCN(c2ccc(C(=O)Nc3cc(-c4nc5ccccc5[nH]4)n[nH]3)cc2)CC1` [Compound 2, reference compound] the IC50 [3] was under 50 nM, the microsomal CLint at 0.75 h, 0.3 μM [4] was 206 µL/min/mg and the “% remaining at 45 min” value [4] was 10%. The “% remaining at 90 min” value [5] was 22%, the hepatocyte CLint at 1.5 h, 0.3 µM [5] was 18 µL/min/1e6 cells and the IC50 [6, 7] was 1710 nM.
For `COc1cc(C(=O)Nc2cc(-c3nc4ccccc4[nH]3)n[nH]2)ccc1Cl` [Compound 20], the “% remaining at 45 min” value [1] was 52%, the microsomal CLint at 0.75 h, 0.3 μM ([1]; human, microsomes, pH 7.4) was 57 µL/min/mg and the “% remaining at 45 min” value [2] was 53%. For the same compound, the “metabolic stability compared with Compound 9 (Langlet et al.)” value [2] was “significantly more stable” and the microsomal CLint at 0.75 h, 0.3 μM ([2]; dog, microsomes, pH 7.4) was 58 µL/min/mg.
In the case of `O=C(Nc1cc(-c2nc3ccccc3[nH]2)n[nH]1)c1ccc(O)c(Cl)c1` [Compound 24], the “% remaining at 45 min” value [1] is reported as 93%, the microsomal CLint at 0.3 μM ([1]; human, microsomes, pH 7.4) is reported as under 20 µL/min/mg and the “% remaining at 45 min” value [2] is reported as 88%. The “metabolic stability compared with Compound 9 (Langlet et al.)” value [2] was “significantly more stable” and the microsomal CLint at 0.3 μM ([2]; dog, microsomes, pH 7.4) was under 20 µL/min/mg.
Compound `CC(=O)Nc1cc(-c2nc3ccccc3[nH]2)n[nH]1` [Compound 29] has an IC50 [3] of over 10000 nM.
`Nc1cc(-c2nc3ccccc3[nH]2)n[nH]1` [Compound 32] showed an IC50 [3] of over 10000 nM.
With `CC(=O)N1CCN(c2ccc(C(=O)Nc3cc(-c4nc5ccccc5[nH]4)n[nH]3)cc2)CC1` [Compound 35] the IC50 [3] was under 1000 nM, the microsomal CLint at 0.75 h, 0.3 μM [4] was 70 µL/min/mg and the “% remaining at 45 min” value [4] was 44%. The “metabolic stability compared with Compound 10 (Langlet et al.)” value [4] was “significantly more stable”.
For `O=C(Nc1cc(-c2nc3ccccc3[nH]2)n[nH]1)c1ccc(N2CCNCC2)cc1` [Compound 36], the microsomal CLint at 0.75 h, 0.3 μM [4] was 41 µL/min/mg, the “% remaining at 45 min” value [4] was 68% and the “metabolic stability compared with Compound 10 (Langlet et al.)” value [4] was “significantly more stable”. The “% remaining at 90 min” value [5] was 110 * %, the hepatocyte CLint at 1.5 h, 0.3 µM [5] was 2.6 µL/min/1e6 cells and the IC50 [6, 8] was over 10000 nM.
`COc1ccc(C(=O)N(C)c2cc(-c3nc4ccccc4[nH]3)n[nH]2)cc1Cl` [Compound 37] showed an IC50 [6, 7] of over 10000 nM.
`CN1CCC(c2ccc(C(=O)Nc3cc(-c4nc5ccccc5[nH]4)n[nH]3)cc2)CC1` [Compound 42] showed an IC50 [3] of under 1000 nM.
In the case of `O=C(Nc1cc(-c2nc3ccccc3[nH]2)[nH]n1)c1ccc(N2CCOCC2)cc1` [Compound 67], the microsomal CLint at 0.75 h, 0.3 μM [4] is reported as 52 µL/min/mg, the “% remaining at 45 min” value [4] is reported as 58% and the “metabolic stability compared with Compound 10 (Langlet et al.)” value [4] is reported as “significantly more stable”. The IC50 [6, 8] was over 10000 nM.
For `COc1ccc(C(=O)Nc2cc(-c3nc4c(F)cccc4[nH]3)[nH]n2)cc1Cl` [Compound 73], the “% remaining at 45 min” value [1] was 13%, the microsomal CLint at 0.75 h, 0.3 μM ([1]; human, microsomes, pH 7.4) was 184 µL/min/mg and the “% remaining at 45 min” value [2] was 31%. The “metabolic stability compared with Compound 9 (Langlet et al.)” value [2] was “significantly more stable” and the microsomal CLint at 0.75 h, 0.3 μM ([2]; dog, microsomes, pH 7.4) was 104 µL/min/mg.
For `COc1ccc(C(=O)Nc2cc(-c3nc4cc(OC(F)(F)F)ccc4[nH]3)[nH]n2)cc1Cl` [Compound 84], the IC50 [3] was 1000 to 10000 nM.
Work on `COc1ccc(C(=O)Nc2cc(-c3nc4c(C(F)(F)F)cccc4[nH]3)[nH]n2)cc1Cl` [Compound 85] yielded an IC50 [3] of under 1000 nM.
`COc1ccc(C(=O)Nc2cc(-c3nc4cc(C(F)(F)F)ccc4[nH]3)[nH]n2)cc1Cl` [Compound 86] gave an IC50 [3] of under 1000 nM.

From US20220185797A1, “SELECTIVE FOXO INHIBITORS FOR TREATMENT OF DIABETES AND OTHER DISORDERS RELATED TO IMPAIRED PANCREATIC FUNCTION” (THE TRUSTEES OF COLUMBIA UNIVERSITYIN THE CITY OF NEW YORK, priority 2019, published 2022)
